Data: the NIST ThermoML archive (doi:10.1016/j.tca.2015.03.003)
± gives the expanded uncertainty stated by the source.

Conditions: Crystal; DTA

| Normal melting temperature | Compound |
| --- | --- |
| 771.1 ± 4 °C | [Cl-].[K+] [potassium chloride] |
| 801.1 ± 4 °C | [Cl-].[Na+] [sodium chloride] |
